Here are results for one compound from paper PMC12027946, “Ionic and Non-Ionic Counterparts Based on Bis(Uracilyl)Alkane Moiety with Highest Selectivity Towards Acetylcholinesterase for Protection Against Organophosphate Poisoning and Treating Alzheimer’s Disease” (International Journal of Molecular Sciences, 2025).

Data set [1] has as its system mice. Description: Open-field test. The class given is in vivo. Particulars: 2b 0.01 mg/kg, 3c 5 mg/kg, i.p. The procedure: (§1) The ability of effective doses of bisuracil 2b (0.01 mg/kg) and bisuracil 3c (5 mg/kg) to induce incapacitation was evaluated. Locomotor activity, measured as the total distance travelled, and exploratory behaviour, assessed by the number of rearings (head inclinations) and head dips, were evaluated using the open-field test. Additionally, motor coordination was analysed using the rotarod test, where the ability of mice to stay on the rotating rod was recorded. The compounds were administered i.p. 30 min before testing, while the control group received an equivalent volume of the vehicle.
(§2) To analyse motor function, rotarod and open-field tests were carried out. Mice were randomly divided into 3 groups (n = 12): a control group of mice and groups of mice treated with tested compounds. Tests were conducted 1 h after compound exposure. To assess motor function, mice were first placed on a rotarod treadmill (Ugo Basile, Italy). Rotation speed was fixed at 15 rpm, and the time that each mouse remained on the rod was recorded as the score, with a maximum duration of 300 s per trial. Each mouse underwent 3 trials. After recording the length of time that mice managed to remain on the rotarod (latency to fall), the average of three trials was used for further analysis. Following the rotarod test, motor function was studied in an open field apparatus (Open Science, Krasnogorsk, Russia), as described in [39]. The numbers of rearing and head dips were estimated as indexes of exploratory activity. To assess motor function, the distance travelled in centimetres in the arena was measured, using VideoMot2 software (Version 8.02 (131) 03-07-17 (TSE Systems, Bad Homburg, Germany).

A further data set has as its target T1, BChE from human plasma (Homo sapiens, UniProt P06276).
T1 construct: butyrylcholiesterase from human plasma; purchased Sigma-Aldrich; host or cells: human plasma
Put plainly: In vitro cholinesterase inhibition (Ellman), BuChE. The class given is biochemical. The procedure: (§3) Inhibitory activities of the tested compounds against AChE and BChE were measured according to Ellman et al.. Enzyme-catalysed hydrolysis of ATCHh was carried out at 25 °C in 0.1 M phosphate buffer (pH 8.0) containing 0.25 U AChE, 1 mM ATCHh as substrates, and 0.1 mM of DTNB. In experiments with BuChE, 0.1 M phosphate buffer (pH 7.0) and BuTChh as a substrate were used. The tested compounds were pre-incubated with the enzyme for two minutes prior to the addition of the substrate and the subsequent recording of hydrolysis kinetics. […] A sample without an inhibitor was used as a control (100% cholinesterase activity). A sample without a substrate was used as a blank. Experiments were performed in triplicate.
Background: In Ellman's method for cholinesterases, released thiocholine reacts with DTNB.

A further data set concerns the target T2, human BuChE (Homo sapiens, UniProt P06276).
T2 construct: butyrylcholiesterase from human plasma; purchased Sigma-Aldrich; host or cells: human plasma
Put plainly: Inhibition constants (Dixon and Cornish–Bowden plots), BuChE. The class given is biochemical. On the procedure:
(§4) Experiments were performed using four different concentrations of ATCh as a substrate for AChE, and with BuTCh as a substrate for BuChE. According to the analysis of Dixon and Cornish–Bowden plots for bisuracil 2b, AChE and BuChE inhibition is of a mixed type characterised both by competitive inhibition (Kci) and uncompetitive inhibition (Kui) components. For AChE, Kci was determined to be 55.7 ± 8.1 pM while Kui = 156 ± 18 pM (Figure 3A,B), and Kci = 0.13 ± 0.02 mM while Kui = 0.7 ± 0.06 mM for BuChE (Figure 3C,D). Inhibition of AChE and BuChE by bisuracil 3c was of a mixed type. For the AChE constant, Kci was 0.7 ± 0.04 nM while Kui 4.45 ± 1.76 nM (Figure 4A,B); for the BuChE constant, Kci = 0.04 ± 0.007 мM while Kui = 0.68 ± 0.08 мM (Figure 4C,D).
(§5) A UV-1800 Shimadzu (Shimadzu Co., Kyoto, Japan) spectrophotometer was utilised to conduct the measurements. The final enzyme concentration in the assays was in the picomolar range. In order to ascertain the levels of spontaneous hydrolysis of the enzyme and substrate in the absence of an inhibitor, controls were performed for each substrate concentration. The change in absorption was then recorded over a period of three minutes. The inhibition constants were determined from a Dixon plot and Cornish–Bowden transformation.

For data set [2], the target named is T3, human AChE (Homo sapiens, UniProt P22303).
T3 construct: purchased Sigma-Aldrich
T3 sequence (P22303 32-614): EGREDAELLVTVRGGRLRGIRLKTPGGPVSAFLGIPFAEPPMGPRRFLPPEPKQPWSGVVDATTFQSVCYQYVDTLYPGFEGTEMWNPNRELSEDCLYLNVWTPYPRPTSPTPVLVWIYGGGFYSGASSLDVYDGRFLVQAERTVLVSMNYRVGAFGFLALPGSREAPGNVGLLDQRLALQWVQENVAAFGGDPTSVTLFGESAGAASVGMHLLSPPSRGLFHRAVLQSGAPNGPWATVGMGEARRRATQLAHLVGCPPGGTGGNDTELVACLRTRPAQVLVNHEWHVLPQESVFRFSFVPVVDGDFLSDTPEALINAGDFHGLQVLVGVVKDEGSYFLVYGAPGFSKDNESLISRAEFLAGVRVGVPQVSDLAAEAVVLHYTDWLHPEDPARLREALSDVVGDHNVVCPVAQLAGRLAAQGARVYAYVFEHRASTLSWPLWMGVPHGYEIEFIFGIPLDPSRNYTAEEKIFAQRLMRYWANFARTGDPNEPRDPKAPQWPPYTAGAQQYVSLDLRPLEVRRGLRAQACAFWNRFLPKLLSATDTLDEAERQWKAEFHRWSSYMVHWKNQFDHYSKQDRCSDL
Description: Inhibition constants (Dixon and Cornish–Bowden plots), AChE. Format: biochemical. The procedure: as §4, §5

The test system of data set [3] is mice poisoned with 2×LD50 of POX. Description: Protection against POX toxicity (pre-treatment). Particulars: for n/N (mice surviving 5 days after POX poisoning / total): atropine 15 mg/kg i.p. 1 min after POX. Format: in vivo. The procedure:
The concept of using reversible AChE inhibition as a preventive strategy to enhance the efficacy of traditional antidotes in OP poisoning is a well-established principle. This study explores the potential of bisuracil 2b as a preventive agent to protect AChE from irreversible inhibition caused by paraoxon (POX), a model OP. […] Following POX administration, the standard antidote atropine was given at a dose of 15 mg/kg within one minute. […] Increasing the dose of bisuracil 2b reduced the protective effect in POX poisoned animals (Table 3).
We also estimated the relative risk of death (RRD) as a function of precocity (from min to hours) over a period of 10 h by Cox survival analysis. Statistical differences in the number of surviving animals between experimental groups were tested using the Cox–Mantel multisample logarithmic rank criterion. It was shown that, in mice exposed to 0.42 mg/kg of POX, RRD = 1 (Figure 5). However, in animals that received atropine within 1 min after poisoning, POX-induced mortality was lower (RRD = 0.5; Figure 5).
The tested compound was administered via i.p. before POX injection.

For data set [4], the target named is T3, human AChE. Put plainly: In vitro cholinesterase inhibition (Ellman), AChE. Format: biochemical. The procedure: as §3
The test system of data set [5] is mice. Description: Rotarod test. The class given is in vivo. To be noted: 2b 0.01 mg/kg i.p.; control 173 ± 21 s, p = 0.125. The procedure:
as §1
as §2, with “After recording the length of time that mice managed to remain on the rotarod (latency to fall), the average of three trials was used for further analysis. Following the rotarod test, motor function was studied in an open field apparatus (Open Science, Krasnogorsk, Russia), as described in [39]. The numbers of rearing and head dips were estimated as indexes of exploratory activity.” left out
On the technique in general: The rotarod test checks motor coordination on a turning rod.

A short description of data set [6]: Acute toxicity, single i.p. injection. To be noted: CD-1, mouse, in vivo, ip, mice. On the procedure:
Toxicological experiments were performed using a single i.p. injection of the tested compounds in CD-1 mice weighing 20–25 g. Stock solutions of the tested compounds were diluted in ethanol or water. The final ethanol dose was 100 mg/kg. Nine different doses of the tested compounds were used with 12 mice per dose. Animals were observed 7 days after injection, and symptoms of toxicity were recorded.

“And” between values parts separate entries of the source, which are not always exact repeats. Equal entries are not always repeated. Where two headings read alike, the source gives them in different places.

T2 sequence (P06276 29-602): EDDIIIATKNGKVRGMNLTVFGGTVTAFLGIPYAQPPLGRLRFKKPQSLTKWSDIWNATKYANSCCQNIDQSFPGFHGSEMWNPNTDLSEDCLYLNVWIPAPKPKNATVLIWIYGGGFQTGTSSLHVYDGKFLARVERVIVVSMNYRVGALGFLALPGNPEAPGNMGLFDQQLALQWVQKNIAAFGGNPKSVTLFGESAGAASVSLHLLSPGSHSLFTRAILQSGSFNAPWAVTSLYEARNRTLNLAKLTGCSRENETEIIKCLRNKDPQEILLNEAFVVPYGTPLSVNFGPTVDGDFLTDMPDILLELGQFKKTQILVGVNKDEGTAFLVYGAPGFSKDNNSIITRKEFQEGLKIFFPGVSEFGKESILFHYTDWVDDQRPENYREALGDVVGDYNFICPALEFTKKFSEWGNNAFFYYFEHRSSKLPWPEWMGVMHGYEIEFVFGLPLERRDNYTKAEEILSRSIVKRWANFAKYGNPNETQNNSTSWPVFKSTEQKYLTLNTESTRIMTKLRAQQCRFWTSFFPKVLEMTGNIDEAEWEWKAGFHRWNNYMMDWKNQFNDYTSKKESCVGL
T1 sequence (P06276 29-602): as above

Turning to `CC[N+](CC)(CCCCCn1c(=O)ccn(CCCCn2c(C)cc(=O)n(C)c2=O)c1=O)Cc1ccccc1C#N` [2b, 1,4-{(3,6-Dimethyluracil-1-yl)-[3-(5-o-nitrilebenzyl(diethyl)ammonio)pentyl)-uracil-1-yl]}butane bromide], the “distance travelled (open field) vs control group” value in the data set with mice [1] is reported as “no significant differences”. Further, the “number of rearings or head dips (open field)” value in the data set with mice [1] was “neither of the tested compounds significantly influenced”. Also, the IC50 on BChE from human plasma turned out to be 219000 ± 50000 nM; on human AChE [4] (AChE IC50, as printed in text and Figure 9), 0.0649 nM; at human AChE [4] (IC50 AChE, Table 1, recombinant human AChE, 25 °C, pH 8.0), 0.06 ± 0.003 nM. For the same compound, the Ki on human BuChE is 130000 ± 20000 nM; on human AChE [2] it was 0.0557 ± 0.0081 nM. Also, the “Kui (uncompetitive inhibition constant), BuChE” value at human BuChE (BuTCh as substrate) is given as 0.7 ± 0.06 mM. The “type of BuChE inhibition” value at human BuChE (Dixon and Cornish–Bowden plots) is recorded as “mixed type”. For the same compound, at human AChE [2] (ATCh as substrate), the “Kui (uncompetitive inhibition constant), AChE” value stood at 156 ± 18 pM. Moreover, the “type of AChE inhibition” value at human AChE [2] (Dixon and Cornish–Bowden plots) is listed as “mixed type”. The “n/N (mice surviving 5 days after POX poisoning / total)” value was 8/12 in data set [3] (2b 0.005 mg/kg i.p. 30 min before POX 0.42 mg/kg i.p.); 10 out of 12 and 10/12 in data set [3] (2b 0.01 mg/kg i.p. 30 min before POX 0.42 mg/kg i.p.); 7/12 in data set [3] (2b 0.05 mg/kg i.p. 30 min before POX 0.42 mg/kg i.p.); 5/12 in data set [3] (2b 0.1 mg/kg i.p. 30 min before POX 0.42 mg/kg i.p.); 4/12 in data set [3] (2b 0.5 mg/kg i.p. 30 min before POX 0.42 mg/kg i.p.); 4/12 in data set [3] (2b 1 mg/kg i.p. 30 min before POX 0.42 mg/kg i.p.). In addition, the “relative risk of death (RRD) vs poisoned group treated only with atropine” value in data set [3] (2b 0.01 mg/kg pre-treatment, p = 0.02) is listed as “significantly decreased”. The “relative risk of death (RRD)” value in data set [3] (2b doses above 0.01 mg/kg) is listed as “did not result in a reduction”. Also, the “mean fall time (rotarod)” value in the data set with mice [5] stood at 124 ± 20 s. Besides, the 50% lethal dose (LD50) at 7 days was 5.16 mg/kg in data set [6] (observed 7 days, read-out: LD50 (median lethal dose)) and 3.68 to 6.94 mg/kg in data set [6] (read-out: LD50 95% confidence limits).

As usually defined, the IC50 is the point on the concentration scale where inhibition reaches its midpoint. In general, Ki refers to the dissociation constant of the complex between target and ligand, obtained from inhibition or displacement. A word on the LD50: it is the dose expected to kill half of the subjects tested.
